Literature values, collected in PubChem BioAssay AID1259409 (Chemical Carcinogenesis Research Information System (CCRIS), 2018).

System: rodent chemically induced tumor inhibition, incidence and multiplicity
Experiment: CCRIS tumor inhibitor studies
Conditions: Route [Inhibitor]: ORAL

Compound	tumour outcome (control, treated, inhibition, significance) (Carcinogen: 3'-METHYL-4-DIMETHYLAMINOAZOBENZENE, 55-80-1, Dose [Inhibitor]: 1% IN DIET AND 0.025% IN DRINKING WATER CONCOMITANTLY FOR 51 WK STARTING AT COMPLETION OF CARCINOGEN TREATMENT (STUDY DU, Species: RAT, Strain/Sex: DONRYU/MALE, Target Tissue: Type of Lesion: LIVER: CARCINOMA, Dose [Carcinogen]: 0.06% IN DIET FOR 50 D, Promoter: NONE USED)	tumour outcome (control, treated, inhibition, significance) (Carcinogen: 4-(METHYLNITROSAMINO)-1-(3-PYRIDYL)-1-BUTANONE [64091-50-5], Dose [Inhibitor]: 80 MMOL/KG IN DIET FOR 17 WK BEGINNING 1 WK PRIOR TO FIRST CARCINOGEN DOSE (STUDY DURATION: 17 WK), Species: MOUSE, Strain/Sex: A/J/FEMALE, Target Tissue: Type of Lesion: LUNG: ADENOMA, Dose [Carcinogen]: 10 UMOL ONCE 1 WK POST FIRST INHIBITOR DOSE (STUDY DURATION: 17 WK), Promoter: NONE)	tumour outcome (control, treated, inhibition, significance) (Carcinogen: 4-(METHYLNITROSAMINO)-1-(3-PYRIDYL)-1-BUTANONE [64091-50-5], Dose [Inhibitor]: 80 MMOL/KG IN DIET FOR 53 WK BEGINNING 1 WK PRIOR TO FIRST CARCINOGEN DOSE (STUDY DURATION: 53 WK), Species: MOUSE, Strain/Sex: A/J/FEMALE, Target Tissue: Type of Lesion: LUNG: ADENOMA OR ADENOCARCINOMA, Dose [Carcinogen]: 10 UMOL ONCE 1 WK POST FIRST INHIBITOR DOSE (STUDY DURATION: 53 WK), Promoter: NONE)	tumour outcome (control, treated, inhibition, significance) (Carcinogen: 4-(METHYLNITROSAMINO)-1-(3-PYRIDYL)-1-BUTANONE [64091-50-5], Dose [Inhibitor]: 160 MMOL/KG IN DIET FOR 17 WK BEGINNING 1 WK PRIOR TO FIRST CARCINOGEN DOSE (STUDY DURATION: 17 WK), Species: MOUSE, Strain/Sex: A/J/FEMALE, Target Tissue: Type of Lesion: LUNG: ADENOMA, Dose [Carcinogen]: 10 UMOL ONCE 1 WK POST FIRST INHIBITOR DOSE (STUDY DURATION: 17 WK), Promoter: NONE)	tumour outcome (control, treated, inhibition, significance) (Carcinogen: 4-(METHYLNITROSAMINO)-1-(3-PYRIDYL)-1-BUTANONE [64091-50-5], Dose [Inhibitor]: 160 MMOL/KG IN DIET FOR 53 WK BEGINNING 1 WK PRIOR TO FIRST CARCINOGEN DOSE (STUDY DURATION: 53 WK), Species: MOUSE, Strain/Sex: A/J/FEMALE, Target Tissue: Type of Lesion: LUNG: ADENOMA OR ADENOCARCINOMA, Dose [Carcinogen]: 10 UMOL ONCE 1 WK POST FIRST INHIBITOR DOSE (STUDY DURATION: 53 WK), Promoter: NONE)	tumour outcome (control, treated, inhibition, significance) (Carcinogen: POTASSIUM 1-METHYL-7-[2-(5-NITRO-2-FURYL)VINYL]-4-OXO-1,4-DIHYDRO-1,8- NAPHTHYRIDINE-3-CARBOXYLATE, 29676-95-7, Dose [Inhibitor]: 1% IN DIET FOR 39 WK STARTING AT COMPLETION OF CARCINOGEN TREATMENT (STUDY DURATION: 53 WK), Species: MOUSE, Strain/Sex: ICR/MALE, Target Tissue: Type of Lesion: FORESTOMACH: SQUAMOUS CELL CARCINOMA, Dose [Carcinogen]: 0.012% DIET FOR 14 WK, Promoter: NONE USED)	tumour outcome (control, treated, inhibition, significance) (Carcinogen: POTASSIUM 1-METHYL-7-[2-(5-NITRO-2-FURYL)VINYL]-4-OXO-1,4-DIHYDRO-1,8- NAPHTHYRIDINE-3-CARBOXYLATE, 29676-95-7, Dose [Inhibitor]: 1% IN DIET FOR 39 WK STARTING AT COMPLETION OF CARCINOGEN TREATMENT (STUDY DURATION: 53 WK), Species: MOUSE, Strain/Sex: ICR/MALE, Target Tissue: Type of Lesion: FORESTOMACH: SQUAMOUS CELL PAPILLOMA, Dose [Carcinogen]: 0.012% IN DIET FOR 14 WK, Promoter: NONE USED)	tumour outcome (control, treated, inhibition, significance) (Carcinogen: POTASSIUM 1-METHYL-7-[2-(5-NITRO-2-FURYL)VINYL]-4-OXO-1,4-DIHYDRO-1,8- NAPHTHYRIDINE-3-CARBOXYLATE, 29676-95-7, Dose [Inhibitor]: 1% IN DIET FOR 39 WK STARTING AT COMPLETION OF CARCINOGEN TREATMENT (STUDY DURATION: 53 WK), Species: MOUSE, Strain/Sex: ICR/MALE, Target Tissue: Type of Lesion: LUNG: ADENOCARCINOMA, Dose [Carcinogen]: 0.012% IN DIET FOR 14 WK, Promoter: NONE USED)	tumour outcome (control, treated, inhibition, significance) (Carcinogen: POTASSIUM 1-METHYL-7-[2-(5-NITRO-2-FURYL)VINYL]-4-OXO-1,4-DIHYDRO-1,8- NAPHTHYRIDINE-3-CARBOXYLATE, 29676-95-7, Dose [Inhibitor]: 1% IN DIET FOR 39 WK STARTING AT COMPLETION OF CARCINOGEN TREATMENT (STUDY DURATION: 53 WK), Species: MOUSE, Strain/Sex: ICR/MALE, Target Tissue: Type of Lesion: LUNG: PAPILLOTUBULAR ADENOCARCINOMA, Dose [Carcinogen]: 0.012% IN DIET FOR 14 WK, Promoter: NONE USED)	tumour outcome (control, treated, inhibition, significance) (Carcinogen: THIOACETAMIDE, 62-55-5, Dose [Inhibitor]: 1% IN DIET FOR 48 WK GIVEN POST CARCINOGEN (STUDY DURATION: 88 WK), Species: MOUSE, Strain/Sex: ICR/MALE, Target Tissue: Type of Lesion: LIVER: HEPATOCELLULAR CARCINOMA, Dose [Carcinogen]: 0.035% IN DIET FOR 40 WK, Promoter: NONE USED)	tumour outcome (control, treated, inhibition, significance) (Carcinogen: BENZO[A]PYRENE, 50-32-8, Dose [Inhibitor]: 0.02 MMOL/G DIET DAILY STARTING AT 63 D OF AGE (8 D PRIOR TO START OF CARCINOGEN TREATMENT) THROUGH 98 D OF AGE FOLLOWED, Species: MOUSE, Strain/Sex: ICR/FEMALE, Target Tissue: Type of Lesion: FORESTOMACH: TUMOR, Dose [Carcinogen]: 1 MG IN 0.2 ML CORN OIL ADMINISTERED 2/WK FOR 4 WK, Promoter: NONE USED)
O=C(O)/C=C/C(=O)O	11/13 (85%), 2/15 (13%), 85%, p<0.0002	100%, 100%, 0%, not significant	100%, 97%, 3%, not significant	100%, 100%, 0%, not significant	100%, 97%, 3%, not significant	7/30 (23%), 1/32 (3%), 87%, p<0.05	13/30 (43%), 0/32 (0%), 100%, not significant	2/30 (7%), 11/32 (34%), -386%, not significant	27/30 (90%), 0/32 (0%), 100%, p<0.01	11/24 (46%), 0/15 (0%), 100%, p<0.01	
c1ccc2c(Cc3c[nH]c4ccccc34)c[nH]c2c1											93%, 94%, -1%, not significant
